Results from patent US20260076902A1, “LIQUID, STORAGE STABLE, DIRECTLY INJECTABLE, PANTOPRAZOLE FORMULATIONS, THEIR USES AND MANUFACTURING” (Etico Lifesciences Private Limited, priority 2024, published 2026).

Assay: Dilution with 0.9% sodium chloride solution, precipitation
Format: physicochemical
Settings: alpha tocopherol tested as stabilizer

Compound: Cc1c(C)c2c(c(C)c1O)CC[C@@](C)(CCC[C@H](C)CCC[C@H](C)CCCC(C)C)O2 [Alpha tocopherol]
- behaviour upon dilution with 0.9% sodium chloride solution: precipitation was formed
